# B1: THTVGSYFSVQNGYVGAFSQALGNSEYAMNSPLGSLDGRTTMYNLLGVKYLFAREDQLKKQ (peptide, listed as Lactobacillus plantarum)
# chain: THTVGSYFSVQNGYVGAFSQALGNSEYAMNSPLGSLDGRTTMYNLLGVKYLFAREDQLKKQ
# notes: positive control
# Legend:
# DSS-induced IBD in mice [1] = test: Colon length in DSS-induced acute IBD mouse model; format: in vivo, male C57BL6 mice; settings: 50 μg/kg intragastrically, 7 days pre-administration, then daily together with 2.5 wt % DSS; x±SD; model group 5.3±0.6, blank control 9.4±0.6; in cm (unit assumed)
# Method: (§1) The administration of a DSS solution with a specified concentration to mice can induce an acute IBD model characterized by diarrhea, hematochezia, ulcer, and granulocyte infiltration. Mice were randomly grouped according to body weights of the mice. 40 healthy male C57BL6 mice were divided into four groups each with 10 mice:
# (§2) blank control group: the mice were each intragastrically administered with water every day at a volume of 0.4 mL/20 g;
# (§3) model group: the mice were each intragastrically administered with a DSS aqueous solution of a mass fraction of 2.5 wt % consecutively for 7 days, where the DSS aqueous solution was freshly prepared and changed every day; […]
# The body weight changes of mice in each group were recorded every day to determine whether the acute IBD mouse model was successfully established.
# (§4) A mouse colon between an anus end to an ileocecal end was integrally collected, and a length of the colon was measured; and the colon was dissected along a longitudinal axis, feces therein was rinsed off, and then the colon was stored in 4% […] or frozen at −80° C. […]
# DSS-induced IBD in mice [2] = test: Colonic histopathological evaluation (HE staining, scoring) in DSS-induced acute IBD mouse model; format: in vivo, male C57BL6 mice; settings: 50 μg/kg intragastrically, 7 days pre-administration, then daily together with 2.5 wt % DSS; x±SD; model group 7.4±0.6, blank control 0.0±0.0
# Method: as §1, §2, §3, §4
# Experimental data in the above experimental method were expressed as (x±SD), the GraphPad Prism (ver. 8.0, GraphPad Software Inc., San Diego, Calif., USA) was used to plot a chart, the SPSS Program (ver. 25.0, SPSS Inc., Chicago, Ill., USA) was used for statistical test, and one-way ANOVA or independent two-sample t-test were used for significance test when the normality and homogeneity of variances were met. […]
Molecule,colon length (DSS-induced IBD in mice [1]),colonic histopathologic score (DSS-induced IBD in mice [2])
"THTVGSYFQVQNGYVGAFSRALGNNEYAMNS (THTVGSYFXVQNGYVGAFSXALGNXEYAMNS; Sequence is synthesized; (9)..(9) Xaa can be Tyr, Val, Gly, Ser, Gln, or absent; (20)..(20) Xaa can be Ser, Gln, Glu, Tyr, Arg, or absent; (25)..(25) Xaa can be Asn, Thr, Ser, Pro, Leu, or absent) [MP-D]",8.0±0.9,1.3±0.6
B1,7.9±0.5,2.4±0.8

# From patent US20220402982A1, “POLYPEPTIDE FRAGMENT D (MP-D) AND USE THEREOF” (SHANGHAI LONGXIN BIOMEDICAL TECHNOLOGY CO., LTD., priority 2021, published 2022)
